In patent US20250302080A1, “SWEETNESS AND/OR FLAVOR ENHANCER” (AJINOMOTO CO., INC., priority 2022, published 2025):

How the values were obtained:
[1] = Sensory evaluation of sweetness intensity in sucrose-containing cafe au lait (Experimental Examples 6-10); conditions: added alone, 3.0 points or more
Protocol: The starting materials were mixed according to the blending rate in Table 6 to prepare a cafe au lait containing sucrose (hereinafter referred to as “negative control cafe au lait”).
A sensory evaluation of the presence or absence of sweetness intensity enhancement was performed for each sample by a panel of four experts according to the following evaluation criteria.
Sweetness intensity was evaluated by 0.0 to 10.0 point based on the following reference samples (negative control (hereinafter referred to as NC) (0.0 point); reference 1 (hereinafter referred to as R1) (5.0 points); reference 2 (hereinafter referred to as R2) (10.0 points)). The average score (rounded to two decimal places) of each expert panelist was calculated. An average score of 3.0 points or more was considered to be functional. • NC (0.0 point): cafe au lait prepared by mixing starting materials at the blending rate in Table 6 (i.e., negative control cafe au lait). • R1 (5.0 points): drink with 0.15 g of sucrose added per 99.85 g of NC. • R2 (10.0 points): drink with 0.30 g of sucrose added per 99.70 g of NC.
A sensory evaluation of sweetness intensity was performed for each sample by a panel of four experts according to the same evaluation criteria as in Experimental Example 6.
A sensory evaluation of the presence or absence of sweetness intensity enhancement was performed for each sample by a panel of four experts according to the same evaluation criteria as in Experimental Example 6.

[2] = Sensory evaluation of sweetness intensity in aspartame solution (Experimental Example 11); conditions: added alone, 3.0 points or more
Protocol: A negative control aspartame solution (0.063 wt % aspartame solution) was prepared by dissolving aspartame in filtered water.
(§1) A sensory evaluation of sweetness intensity was performed for each sample by a panel of three experts according to the following evaluation criteria.
(§2) Sweetness intensity was evaluated by 0.0 to 10.0 points based on the following reference samples (negative control (hereinafter referred to as NC) (0.0 point); reference 1 (hereinafter referred to as R1) (5.0 points); reference 2 (hereinafter referred to as R2) (10.0 points)). The average score (rounded to two decimal places) of each expert panelist was calculated. An average score of 3.0 points or more was considered to be functional. • NC (0.0 point): 0.063 wt % aspartame solution (solvent: filtered water) • R1 (5.0 points): 0.066 wt % aspartame solution (solvent: filtered water) • R2 (10.0 points): 0.069 wt % aspartame solution (solvent: filtered water)

[3] = Sensory evaluation of sweetness intensity in RebA solution (Experimental Example 12); conditions: added alone, 3.0 points or more
Protocol: A negative control RebA solution (0.073 wt % […] solution) was prepared by dissolving RebA in filtered water.
as §1
as §2, with “0.073” for “0.063”, “RebA” for “aspartame”, “0.077” for “0.066”, “0.080” for “0.069”

[4] = Sensory evaluation of sweetness intensity in yogurt drink (Experimental Example 14); conditions: added alone, 3.0 points or more
Protocol: Yogurt drink (product name: 7 Premium Yogurt Drink, SEVEN-ELEVEN JAPAN CO., LTD.) was diluted 1.2 times with filtered water to prepare negative control yogurt drink.
When the carbohydrate content of 7 Premium Yogurt Drink is calculated as the total sucrose content, the negative control yogurt drink contains 10.75 g of sucrose per 100 g.
A sensory evaluation of sweetness intensity and yogurt flavor intensity was performed for each sample by a panel of three experts according to the following evaluation criteria.
Sweetness intensity and yogurt flavor intensity were each evaluated by 0.0 to 10.0 point based on the following reference samples (negative control (hereinafter referred to as NC) (0.0 point); reference 1 (hereinafter referred to as R1) (5.0 points); reference 2 (hereinafter referred to as R2) (10.0 points)). The average score (rounded to two decimal places) of each expert panelist was calculated. An average score of 3.0 points or more was considered to be functional. • NC (0.0 point): yogurt drink (product name: 7 Premium Yogurt Drink, SEVEN-ELEVEN JAPAN CO., LTD.) diluted 1.2 times with filtered water. • R1 (5.0 points): with 0.54 g of sucrose added per 99.46 g of NC. • R2 (10.0 points): with 1.08 g of sucrose added per 98.92 g of NC.

[5] = Sensory evaluation of sweetness intensity in black tea au lait (Experimental Example 15); conditions: added alone; for concentration at which a sweetness-enhancing effect was confirmed: 3.0 points or more
Protocol: (§3) Instant black tea au lait powder (product name: Blendy (registered trademark) Stick Black Tea Au Lait (Ajinomoto AGF, Inc.)) was prepared according to the instructions, and then diluted 1.2 times with filtered water to prepare negative control black tea au lait.
(§4) When the carbohydrate content of Blendy (registered trademark) Stick Black Tea Au Lait is calculated as the total sucrose content, the negative control black tea au lait contains 5.2 g of sucrose per 100 g.
(§5) A sensory evaluation of sweetness intensity and black tea au lait flavor intensity was performed for each sample by a panel of three experts according to the following evaluation criteria.
(§6) Sweetness intensity and black tea au lait flavor intensity were each evaluated by 0.0 to 10.0 point based on the following reference samples (negative control (hereinafter referred to as NC) (0.0 point); reference 1 (hereinafter referred to as R1) (5.0 points); reference 2 (hereinafter referred to as R2) (10.0 points)). The average score (rounded to two decimal places) of each expert panelist was calculated. An average score of 3.0 points or more was considered to be functional. • NC (0.0 point): black tea au lait (product name: Black Tea Au Lait, Ajinomoto AGF, Inc.) prepared according to the instructions, and then diluted 1.2 times with filtered water (i.e., negative control black tea au lait). • R1 (5.0 points): with 0.26 g of sugar added per 99.74 g of NC. • R2 (10.0 points): with 0.52 g of sugar added per 99.48 g of NC.

[6] = Sensory evaluation of black tea au lait flavor intensity (Experimental Example 15); conditions: added alone; for black tea au lait flavor-enhancing effect (in words): 0.0001-1000 ppb
Protocol: as §3, §4, §5, §6

| Compound | concentration at which a sweetness-enhancing effect was confirmed [1] [ppb] | concentration at which a sweetness-enhancing effect was confirmed [2] [ppb] | concentration at which a sweetness-enhancing effect was confirmed [3] [ppb] | concentration at which a sweetness-enhancing effect was confirmed [4] [ppb] | concentration at which a sweetness-enhancing effect was confirmed [5] [ppb] | black tea au lait flavor-enhancing effect (in words) [6] | sweetness-enhancing effect (in words) ([5]; 0.0001-1000 ppb) | concentration at which a black tea au lait flavor-enhancing effect was confirmed ([6]; 3.0 points or more) [ppb] |
| --- | --- | --- | --- | --- | --- | --- | --- | --- |
| CC1=C(O)C(=O)CC1 [cyclotene] | ≥ 0.1 | 10 | 10 | ≥ 0.01 | ≥ 1 | concentration-dependent black tea au lait flavor-enhancing effect | – | – |
| CCCCCCCCCC(=O)O [decanoic acid] | ≥ 1 | 10 | 10 | ≥ 0.1 | – | concentration-dependent black tea au lait flavor-enhancing effect | concentration-dependent sweetness-enhancing effect | – |
| CC(C)CCC(=O)O [4-methylpentanoic acid] | ≥ 0.1 | 100 | 100 | ≥ 1 | ≥ 100 | – | – | ≥ 1 |
